In patent US20240383856A1 (Zedira GmbH, priority 2021, published 2024):

What was measured:
[1] = logD by shake flask method (octanol / PBS pH 7.4, HPLC); format: physicochemical; details: octanol / PBS pH 7.4, shake flask
In short: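 Shake-flask partition of compound between octanol and phosphate-buffered saline at pH 7.4, with each phase quantified by HPLC to give LogD.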

[2] = target: T1, recombinant human transglutaminase 2 (Homo sapiens, UniProt P21980); test: Transglutaminase assay (DCC-assay): incorporation of dansylcadaverine into dimethylcasein; format: biochemical; details: recombinant human TG2 10 nM; dansylcadaverine incorporation into dimethylcasein; read-out: IC50 TG2
T1 construct: purchased Zedira T022
T1 sequence (P21980 1-687): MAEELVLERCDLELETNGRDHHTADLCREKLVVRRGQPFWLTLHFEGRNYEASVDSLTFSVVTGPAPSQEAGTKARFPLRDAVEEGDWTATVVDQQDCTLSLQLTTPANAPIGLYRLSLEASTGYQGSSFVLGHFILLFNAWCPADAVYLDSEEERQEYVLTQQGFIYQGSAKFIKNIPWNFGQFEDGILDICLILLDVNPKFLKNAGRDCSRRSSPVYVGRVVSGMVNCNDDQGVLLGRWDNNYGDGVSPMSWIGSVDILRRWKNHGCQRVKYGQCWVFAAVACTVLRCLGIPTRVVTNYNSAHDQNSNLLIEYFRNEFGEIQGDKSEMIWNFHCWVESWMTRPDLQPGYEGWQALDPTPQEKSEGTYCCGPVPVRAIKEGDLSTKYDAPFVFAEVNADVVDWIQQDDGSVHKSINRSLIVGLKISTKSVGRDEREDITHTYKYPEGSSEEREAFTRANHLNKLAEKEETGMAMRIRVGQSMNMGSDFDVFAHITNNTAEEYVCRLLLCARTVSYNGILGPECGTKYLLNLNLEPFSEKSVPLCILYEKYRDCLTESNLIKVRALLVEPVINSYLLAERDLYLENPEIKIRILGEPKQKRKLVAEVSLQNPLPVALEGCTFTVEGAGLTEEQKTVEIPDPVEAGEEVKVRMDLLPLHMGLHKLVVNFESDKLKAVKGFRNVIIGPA
In short: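 Recombinant human TG2 (10 nM final) incorporates dansylcadaverine into N,N-dimethylcasein. Reaction mix: 50 mM Tris-HCl, 10 mM CaCl2, 10 mM glutathione, 2.5% glycerol, 16.7 µM dansylcadaverine, 4 µM dimethylcasein, 200 mM NaCl, pH 8.0. Fluorescence (ex 330/em 500 nm) was followed 30 min at 37 °C; the 20–30 min slope, expressed as % of 2% DMSO control, gave IC50.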

[3] = Caco-2 permeability assay (CacoReady kit); format: in vitro ADME; details: human, Caco-2, Caco-2 barrier, CacoReady kit; above 1×10^−6 cm/s classified as permeable
In short: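 Read-out is the permeability coefficient Papp, obtained from transport across a Caco-2 barrier prepared from a ready-to-use kit following the manufacturer's instructions.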

Row | Structure (SMILES) | logD [1] | IC50 [2] | Papp [3]
1 | CNC(=O)C(=O)CC[C@H](NC(=O)c1nc(Cl)sc1Cl)C(=O)Nc1cccn(CC(=O)NC2C3CC4CC(C3)CC2C4)c1=O (stereo partly drawn) [II-32, (S)-2-(2,5-dichlorothiazole-4-carboxamido)-N1-(1-(2-(2-adamantylamino)-2-oxoethyl)-2-oxo-1,2-dihydropyridin-3-yl)-N6-methyl-5-oxohexanediamide] | 1 to 3 | 40 to 400 nM | 1 to 10 ×10⁻⁶ cm/s
2 | CNC(=O)C(=O)CC[C@H](NC(=O)c1cccnc1)C(=O)Nc1cccn(CC(=O)NC2C3CC4CC(C3)CC2C4)c1=O (stereo partly drawn) [II-111, (S)-N1-(1-(2-(2-adamantylamino)-2-oxoethyl)-2-oxo-1,2-dihydropyridin-3-yl)-N6-methyl-2-(nicotinamido)-5-oxohexanediamide] | 1 to 3 | < 40 nM | < 1 ×10⁻⁶ cm/s
3 | CCn1c(C(=O)N[C@@H](CCC(=O)C(=O)NC2CCCCC2)C(=O)Nc2cccn(CC(=O)NC34CC(C3)C4)c2=O)cc2ccccc21 [II-183, (S)-N1-(1-(2-(bicyclo[1.1.1]pentan-1-ylamino)-2-oxoethyl)-2-oxo-1,2-dihydropyridin-3-yl)-N6-cyclohexyl-2-(1-ethyl-1H-indole-2-carboxamido)-5-oxohexanediamide] | 1 to 3 | 40 to 400 nM | 1 to 10 ×10⁻⁶ cm/s
4 | CNC(=O)C(=O)CC[C@H](NC(=O)c1sc(Br)cc1Br)C(=O)Nc1cccn(CC(=O)NC2C3CC4CC(C3)CC2C4)c1=O (stereo partly drawn) [II-22, (S)-2-(3,5-dibromothiophene-2-carboxamido)-N1-(1-(2-(2-adamantylamino)-2-oxoethyl)-2-oxo-1,2-dihydropyridin-3-yl)-N6-methyl-5-oxohexanediamide] | 3 to 5 | < 40 nM | 1 to 10 ×10⁻⁶ cm/s
5 | CNC(=O)C(=O)CC[C@H](NC(=O)c1csc(Cl)n1)C(=O)Nc1cccn(CC(=O)NC2C3CC4CC(C3)CC2C4)c1=O (stereo partly drawn) [II-36, (S)-2-(2-chlorothiazole-4-carboxamido)-N1-(1-(2-(2-adamantylamino)-2-oxoethyl)-2-oxo-1,2-dihydropyridin-3-yl)-N6-methyl-5-oxohexanediamide] | 1 to 3 | 40 to 400 nM | 1 to 10 ×10⁻⁶ cm/s
6 | CNC(=O)C(=O)CC[C@H](NC(=O)c1nccn1C)C(=O)Nc1cccn(CC(=O)NC[C@@H]2CC[C@H]3C[C@@H]2C3(C)C)c1=O [II-208, (S)-N1-(1-(2-(((1S,2R,5S)-6,6-dimethylbicyclo[3.1.1]heptan-2-yl)methylamino)-2-oxoethyl)-2-oxo-1,2-dihydropyridin-3-yl)-N6-methyl-2-(1-methyl-1H-imidazole-2-carboxamido)-5-oxohexanediamide] | 1 to 3 | 400 to 2500 nM | < 1 ×10⁻⁶ cm/s
7 | CNC(=O)C(=O)CC[C@H](NC(=O)c1ccc(Cl)o1)C(=O)Nc1cccn(CC(=O)NC2C3CC4CC(C3)CC2C4)c1=O (stereo partly drawn) [II-26, (S)-2-(5-chlorofuran-2-carboxamido)-N1-(1-(2-(2-adamantylamino)-2-oxoethyl)-2-oxo-1,2-dihydropyridin-3-yl)-N6-methyl-5-oxohexanediamide] | 1 to 3 | 40 to 400 nM | 1 to 10 ×10⁻⁶ cm/s
8 | CC(C)(C)NC(=O)C(=O)CC[C@H](NC(=O)c1c[nH]c2ccccc12)C(=O)Nc1cccn(CC(=O)NC2C3CC4CC(C3)CC2C4)c1=O (stereo partly drawn) [II-176, (S)-N1-tert-butyl-5-(1H-indole-3-carboxamido)-N6-(1-(2-(2-adamantylamino)-2-oxoethyl)-2-oxo-1,2-dihydropyridin-3-yl)-2-oxohexanediamide] | 3 to 5 | 400 to 2500 nM | 1 to 10 ×10⁻⁶ cm/s
9 | CNC(=O)C(=O)CC[C@H](NC(=O)c1ccnn1C)C(=O)Nc1cccn(CC(=O)N[C@@H]2C[C@@H]3CC[C@H]2C3)c1=O [II-158, (S)-N1-(1-(2-((1S,2R,4R)-bicyclo[2.2.1]heptan-2-ylamino)-2-oxoethyl)-2-oxo-1,2-dihydropyridin-3-yl)-N6-methyl-2-(1-methyl-1H-pyrazole-5-carboxamido)-5-oxohexanediamide] | < 1 | 40 to 400 nM | < 1 ×10⁻⁶ cm/s
10 | O=C(Cn1cccc(NC(=O)[C@H](CCC(=O)C(=O)Nc2ccccc2)NC(=O)c2cc3ccccc3o2)c1=O)NC1C2CC3CC(C2)CC1C3 (stereo partly drawn) [II-122, (S)-2-(benzofuran-2-carboxamido)-N1-(1-(2-(2-adamantylamino)-2-oxoethyl)-2-oxo-1,2-dihydropyridin-3-yl)-5-oxo-N6-phenylhexanediamide] | 3 to 5 | 400 to 2500 nM | 1 to 10 ×10⁻⁶ cm/s
11 | CNC(=O)C(=O)CC[C@H](NC(=O)c1oc2ccccc2c1C)C(=O)Nc1cccn(CC(=O)NC2C3CCC2CC3)c1=O (stereo partly drawn) [II-96, (S)-N1-(1-(2-(bicyclo[2.2.1]heptan-7-ylamino)-2-oxoethyl)-2-oxo-1,2-dihydropyridin-3-yl)-N6-methyl-2-(3-methylbenzofuran-2-carboxamido)-5-oxohexanediamide] | 1 to 3 | 40 to 400 nM | 1 to 10 ×10⁻⁶ cm/s
12 | CNC(=O)C(=O)CC[C@H](NC(=O)c1cc(Br)c(Br)s1)C(=O)Nc1cccn(CC(=O)NC2C3CC4CC(C3)CC2C4)c1=O (stereo partly drawn) [II-45, (S)-2-(4,5-dibromothiophene-2-carboxamido)-N1-(1-(2-(2-adamantylamino)-2-oxoethyl)-2-oxo-1,2-dihydropyridin-3-yl)-N6-methyl-5-oxohexanediamide] | 3 to 5 | < 40 nM | 1 to 10 ×10⁻⁶ cm/s
13 | NC(=O)C(=O)CC[C@H](NC(=O)c1cc2ccccc2o1)C(=O)Nc1cccn(CC(=O)NC2C3CC4CC(C3)CC2C4)c1=O (stereo partly drawn) [II-124, (S)-2-(benzofuran-2-carboxamido)-N1-(1-(2-(2-adamantylamino)-2-oxoethyl)-2-oxo-1,2-dihydropyridin-3-yl)-5-oxohexanediamide] | 1 to 3 | 40 to 400 nM | 1 to 10 ×10⁻⁶ cm/s
14 | CNC(=O)C(=O)CC[C@H](NC(=O)c1cncn1C)C(=O)Nc1cccn(CC(=O)NC23CC4(C)CC(C)(CC(C)(C4)C2)C3)c1=O [II-211, (S)-N1-(1-(2-(3,5,7-trimethyl-1-adamantylamino)-2-oxoethyl)-2-oxo-1,2-dihydropyridin-3-yl)-N6-methyl-2-(1-methyl-1H-imidazole-5-carboxamido)-5-oxohexanediamide] | 1 to 3 | 40 to 400 nM | < 1 ×10⁻⁶ cm/s
15 | CNC(=O)C(=O)CC[C@H](NC(=O)c1cnsn1)C(=O)Nc1cccn(CC(=O)NC2C3CC4CC(C3)CC2C4)c1=O (stereo partly drawn) [II-142, (S)-N1-(1-(2-(2-adamantylamino)-2-oxoethyl)-2-oxo-1,2-dihydropyridin-3-yl)-N6-methyl-5-oxo-2-(1,2,5-thiadiazole-3-carboxamido)hexanediamide] | 1 to 3 | 40 to 400 nM | < 1 ×10⁻⁶ cm/s
16 | CCc1c(C(=O)N[C@@H](CCC(=O)C(=O)NC2CCCCC2)C(=O)Nc2cccn(CC(=O)NC34CC(C3)C4)c2=O)oc2ccccc12 [II-182, (S)-N1-(1-(2-(bicyclo[1.1.1]pentan-1-ylamino)-2-oxoethyl)-2-oxo-1,2-dihydropyridin-3-yl)-N6-cyclohexyl-2-(3-ethylbenzofuran-2-carboxamido)-5-oxohexanediamide] | 1 to 3 | 40 to 400 nM | 1 to 10 ×10⁻⁶ cm/s
17 | CNC(=O)C(=O)CC[C@H](NC(=O)c1cc(Cl)sc1Cl)C(=O)Nc1cccn(CC(=O)N[C@H]2C[C@H]3CC[C@]2(C)C3(C)C)c1=O [II-160, (S)-2-(2,5-dichlorothiophene-3-carboxamido)-N6-methyl-5-oxo-N1-(2-oxo-1-(2-oxo-2-((1R,2S,4R)-1,7,7-trimethylbicyclo[2.2.1]heptan-2-ylamino)ethyl)-1,2-dihydropyridin-3-yl)hexanediamide] | 1 to 3 | 40 to 400 nM | 1 to 10 ×10⁻⁶ cm/s
18 | CC(C)(C)NC(=O)C(=O)CC[C@H](NC(=O)[C@@H]1CN2CCN1CC2)C(=O)Nc1cccn(CC(=O)NC2C3CC4CC(C3)CC2C4)c1=O (stereo partly drawn) [II-175, (S)-2-((S)-1,4-diazabicyclo[2.2.2]octane-2-carboxamido)-N6-tert-butyl-N1-(1-(2-(2-adamantylamino)-2-oxoethyl)-2-oxo-1,2-dihydropyridin-3-yl)-5-oxohexanediamide] | 1 to 3 | 400 to 2500 nM | < 1 ×10⁻⁶ cm/s
19 | CNC(=O)C(=O)CC[C@H](NC(=O)c1cc2ccccc2s1)C(=O)Nc1cccn(CC(=O)NC2C3CC4CC(C3)CC2C4)c1=O (stereo partly drawn) | 3 to 5 | < 40 nM | 1 to 10 ×10⁻⁶ cm/s
